Measurements from US7691564B2, “Heterotrimeric G-protein” (The Johns Hopkins University, priority 2000, dated 2010).
Like-named read-outs stand apart in the source and are kept apart here.

Tests used:
[1] = system: G-protein heterotrimer (Gα2-CFP:Gβ-YFP) linked to cAMP chemoattractant receptors; assay: FRET loss in living α2-CFP:β-YFP cells (fluorimeter); format: cell-based, D. discoideum; settings: for EC50: read-out: EC50 for decrease of the FRET signal
Procedure: (§1) FIGS. 2A to 2E. Fluorescence spectra of cell lines. (FIG. 2A) Developed cells were excited in a Spex Fluoromax-2 fluorimeter at 440 nm and emission was collected between 460 nm and 600 nm and processed as described (14). Gα2-CFP/g α2^− cells (“α2-CFP”), α2-CFP: β-YFP cells (“α2-CFP: -YFP”), and mixture of equal number of Ga-2-CFP/gα2^− and G β-YFP/g βcells (“mixed cells”). […] Cells were scanned at selected time points following addition of the stimulus. […] Mean intensities were calculated in IPLab Spectrum by manually circumscribing the membrane of multiple cells. […] Arrows indicate the frame at which the stimulus was added. (FIG. 2E) Difference images of consecutive frames of one captured at 3 second intervals were calculated in IPLab Spectrum. […] Calibration bar is 10 μm.
FIGS. 3A to 3B. […] Data was processed as described (34). […] Data from two independent experiments were averaged for each curve.
We excited living, differentiated cells at 440 nm and recorded the emission spectrum between 460 and 600 nm.
• 1. A. G. Gilman, Annu Rev Biochem 56, 615-49 (1987). • 2. H. E. Hamm, J Biol Chem 273, 669-72 (1998). • 3. C. A. Parent, B. J. Blacklock, W. M. Froehlich, D. B. Murphy, P. N. Devreotes, Cell 95, 81-91 (1998). • 4. Z. Xiao, N. Zhang, D. B. Murphy, P. N. Devreotes, J Cell Biol 139, 365-74 (1997). • 5. G. Servant et al., Science 287, 1037-40 (2000). • 6. T. Jin, N. Zhang, Y. Long, C. A. Parent, P. N. Devreotes, Science 287, 1034-6 (2000). • 7. R. Heim, R. Y. Tsien, Curr Biol 6, 178-82 (1996). • 8. The coding region of the β-YFP fusion protein was cloned into the CV5 vector. CV5 was derived from p88 by addition of an actin 15/expression cassette from pMC34 (3). • 9. D. G. Lambright et al., Nature 379, 311-9 (1996). • 10. M. A. Wall et al., Cell 83, 1047-58 (1995) • 11. A. Kumagai et al., Cell 57, 265-75 (1989). • 12. The gene encoding CFP was inserted into a Spe1 site after residue 90, in the loop between the αA and the αB helices, of the Gα2 cDNA. The SpeI site also added a threonine and serine residue at the N and C terminal loundaries of the insertion. This fusion was cloned into the CV5 vector. The gα2^− cells were transformed, and individual G418 resistant clones were selected. […] Equal amounts of plasmids carrying the Gα2-CFP and Gβ-YFP fusions were mixed, transformed into gα2 cells, and individual G418 resistant clones were selected.

cAR1 = biological target: T1, cAR1 (Dictyostelium discoideum, UniProt P13773); settings: cited from earlier work; for Kd: literature ref 16, read-out: reported binding affinity (average KD)
T1 sequence (P13773 1-392): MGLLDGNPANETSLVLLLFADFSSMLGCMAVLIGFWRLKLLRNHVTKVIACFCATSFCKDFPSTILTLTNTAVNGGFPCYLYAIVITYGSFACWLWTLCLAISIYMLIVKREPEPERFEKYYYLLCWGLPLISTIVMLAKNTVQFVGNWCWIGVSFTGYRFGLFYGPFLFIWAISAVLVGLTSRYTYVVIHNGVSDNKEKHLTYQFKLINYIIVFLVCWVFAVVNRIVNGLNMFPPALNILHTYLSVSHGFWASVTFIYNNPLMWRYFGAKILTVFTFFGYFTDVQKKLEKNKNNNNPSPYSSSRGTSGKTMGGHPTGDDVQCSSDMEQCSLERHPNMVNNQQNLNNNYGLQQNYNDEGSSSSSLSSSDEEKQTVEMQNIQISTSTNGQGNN

[2] = biological target: T2, G-protein heterotrimer (Gα2-CFP:Gβ-YFP) (Dictyostelium discoideum, UniProt P16051, INS90[…]); assay: FRET signal in membranes prepared from α-CFP:β-YFP cells; format: biochemical, D. discoideum
T2 construct: expressed in transfected cells; host or cells: D. discoideum gα2-null cells (α-CFP:β-YFP cells), CV5 vector, G418-selected clones; living cells in A1 and A3, membranes prepared from them in A4

[3] = system: PH-domain recruitment to membranes; assay: PH domain (PHCRAC-GFP) binding to membranes in cell lysates; format: biochemical, D. discoideum
Procedure: FIGS. 4A to 4C. Continuous activation of the G-protein cycle. […] (FIG. 4B) Receptor regulation of PH domain translocation. […] After 2 minutes membranes were collected and binding of the PHCRAC-GFP was assessed by immunoblot analysis using antibodies to GFP (22). (FIG. 4C) Assessment of cAR1 phosphorylation.

[4] = system: G-protein heterotrimer (Gα2-CFP:Gβ-YFP) in α-CFP:β-YFP cells; settings: saturating dose, within 6 seconds
Procedure: as §1

[5] = α2-CFP:β-YFP cells, caffeine treated, 10 mM dithiothreitol

In the case of `Nc1ncnc2c1ncn2[C@@H]1O[C@H](COP(=O)(O)O)[C@@H](O)[C@H]1O` [5′-AMP], the “effect on the FRET signal” value ([1]; 1 mM) is listed as “no effect on the FRET signal” and the “binding to cAR1” value (cAR1) is listed as “does not bind to cAR1”.

In the case of `Nc1ncnc2c1nc(Br)n2[C@@H]1O[C@@H]2COP(=O)(O)O[C@H]2[C@H]1O` [8-Br-cAMP], the EC50 [1, 5] is listed as about 2 µM and the Kd (cAR1) is listed as about 32 µM.

For `Nc1ncnc2c1ncn2C1CC2OP(=O)(O)OCC2O1` (stereo not shown) [2′-dcAMP], the EC50 [1, 5] is given as about 0.02 µM and the Kd (cAR1) is given as about 1 µM.

In the case of `Nc1nc2c(ncn2[C@@H]2O[C@H](COP(=O)(O)OP(=O)(O)OP(O)(O)=S)[C@@H](O)[C@H]2O)c(=O)[nH]1` [GTPγS], the “FRET signal of membranes” value ([2]; GTPγS alone (data not shown)) is reported as “not with GTPγS alone”, the “FRET signal of membranes” value ([2]; Mg++ plus GTPγS (data not shown)) is reported as “disappeared” and the “binding of PH-domains to membranes” value ([3]; lysates from adapted cells (cAMP 15 minutes)) is reported as “this response was lost”. For the same compound, the “binding of PH-domains to membranes” value ([3]; lysates from naive cells) was “stimulated the binding of PH-domains to membranes”.

In the case of `Nc1ncnc2c1ncn2C1OC2COP(=O)(O)OC2C1O` (stereo not shown) [cAMP, cyclic adenosine 3′, 5′ phosphate], the “FRET signal remaining, % of the initial value” [1] is reported as about 20%, the “change in FRET after adjusting to 10 μM” value [1] is reported as “further decrease in FRET” and the “decrease of the FRET signal” value [1] is reported as “approximately 70%”. The duration of activation [1] was “Activation did not subside”, the “response as % of the maximum” value [1] was 90% and the “time for the FRET signal to return to its maximal level” value [1] was “within two minutes”. For the same compound, the “time to maximal response after stimulation” value [1] was at most 10 s, the EC50 [1] was about 0.01 µM and the “decrease of the membrane FRET signal” value [4] was “about 15%”.
